From patent US8937055B2, “Heterocyclic ring compound having muscle cell or adipocyte differentiation regulating action” (Takeda Pharmaceutical Company Limited, priority 2010, dated 2015)

What was measured:
[1] = test system: Mouse-derived myoblast line C2C12 cell; assay: Cell differentiation promoting activity in myoblast (creatine kinase activity); format: cell-based; details: 48 h, 1 μM compound, 2 days in differentiation medium, CK activity without compound = 100%, read-out: creatinine kinase activating action (%)
Experimental: • (1) Mouse-derived myoblast line C2C12 cell (Dainippon Pharmaceutical Co., Ltd.) was subcultured in a high glucose Eagle's modified Dulbecco's medium (GIBCO) containing 10% calf fetal bovine serum (GIBCO), 100 unit/mL penicillin and 100 μg/mL streptomycin (hereinafter to be referred to as a growth medium), plated at 5000 cells/cm^2 and cultured at 37° C., under 5% CO2. • (2) When the cells reached subconfluence, the medium was exchanged with a high glucose Eagle's modified Dulbecco's medium (GIBCO) containing 2% horse serum (GIBCO) and penicillin, streptomycin and a test compound (hereinafter to be referred to as a differentiation medium), and the cells were cultured for 2 days. To the control group was added DMSO solution instead of the test compound. • (3) The cells were washed with PBS, 0.5% NP-40 solution was added thereto, and the cells were lysed by freeze-thawing. The cell extract was centrifuged, and the creatine kinase activity in the supernatant was measured as an index of muscle differentiation. The creatine kinase activity was measured using CPKII Test Wako (Wako Pure Chemical Industries, Ltd.) according to the manual of the kit. The tests using the compounds of Example 7 to Example 14 were corrected based on the total protein amount measured using CA Protein Assay Kit (Thermo Scientific).
The numerical values in Table 3 show CK activity of the compound addition group with the CK activity without addition of the compound as 100%, and 1 μM of the compound was added for the measurement.

NF-kB = NF-kB activation suppressive action in muscle cell (luciferase reporter, TNF-α induced); format: cell-based, mouse; details: TNF-α 10 ng/mL, activity without TNF-α = 1, n=8
Experimental: • (1) C2C12 cells introduced with NF-kB reporter plasmid (C2C12/NF-kB-luc, Panomics) was plated at 20000 cells/cm^2, 100 μg/ml hygromycin was added thereto, and the cells were cultured in a growth medium in the same manner as in Example 1. • (2) The cells were cultured in a differentiation medium containing the compound of Example 1, Example 8, Example 9, Example 10 or Example 11 for 1 hr, TNF-α was added thereto such that the concentration is 10 ng/mL, and the cells were cultured for 4 hr. • (3) The luciferase activity in the medium was measured using a Stedy-Glo luciferase assay system (Promega). The NF-kB activity was evaluated by measuring the luciferase activity.
The data in Table 6 to Table 10 show mean±standard deviation at n=8 (n is the number of samples).

[2] = Anti-diabetes action in KKA^y mouse (glycohemoglobin); format: in vivo, female KKA^y mouse; details: 2 weeks, variation from value before administration, n=6
Experimental: Female KKA^y mice (12-13 week-old, CLEA Japan, Inc.) were bred allowing free ingestion of both feed and water. The mice were acclimation bred with powder CE-2 (CLEA Japan, Inc.) from 2 weeks before administration of the test compound. The body weight, blood glycohemoglobin % (GHb %) value, plasma glucose, triglyceride and total cholesterol concentration were measured, and the mice were divided into 3 groups or 5 groups (6 mice/group) such that those measurement values are uniform at the start of the administration. The compound was administered by mixing (0.01-0.03%) in the feed for 2 weeks. GHb % was measured on the last day. GHb % was measured using Tosoh Corporation automatic glycohemoglobin analyzer (HLC-723GHbV Alc2.2). The numerical values in Table 11 show the variation from the value before administration to the measured value after administration in mean±standard deviation at n=6 (n is the number of mice).

[3] = test system: differentiated C2C12 muscle cell; assay: Sugar metabolism promoting activity in muscle cell (lactic acid production); format: cell-based, mouse; details: C2C12 myotube, 1 μM compound, 2 days; lactic acid concentration without compound = 100%
Experimental: • (1) In the same manner as in Experimental Example 1, C2C12 cell was cultured in a growth medium. When the cells reached subconfluence, the medium was exchanged with a differentiation medium, and the cells were cultured for 3 to 4 days while exchanging the medium every 2 or 3 days until the cells differentiated to form a myotube. • (2) After confirmation of myotube formation under a microscope, the compound (1 μM) was added to a differentiation medium and cultured for 2 days. The cells were washed with Krebs-Ringer HEPES phosphate buffer (10 mM HEPES, pH 7.4, 131 mM NaCl, 4.7 mM KCl, 2.5 mM CaCl2-2H2O, 1.2 mM MgSO4-7H2O, 1.2 mM KH2PO4), the medium was exchanged with Krebs-Ringer HEPES phosphate buffer containing 5 mM glucose, 0.2% fatty acid-free bovine serum albumin, and the cells were cultured at 37° C. for 4 hr. • (3) The lactic acid concentration of the culture supernatant was measured using Detarminer LA kit (Kyowa Medex Co., Ltd.).
The numerical values in Table 4 show the lactic acid concentration of the compound addition group with the lactic acid concentration without addition of the compound as 100%.

3T3-L1 cells = assay: Adipocyte differentiation suppressive action (fat droplet quantification); format: cell-based
Experimental: 3T3-L1 cells (ATCC) were cultured in a growth medium until confluence. 1 μM dexamethasone, 0.5 mM 3-isobutyl-1-methylxanthine and 5 μg/mL insulin were added to the medium, and the cells were cultured for 3 days. The medium was exchanged with a growth medium containing 4 μg/mL insulin and the cells were cultured for 3 more days. When the compound (1 μM) was to be added, it was added after the cells reached confluence, and the cells were cultured for 6 days. After completion of the culture period, the fat droplet formed was quantified using Adipogenesis Assay Kit (CHEMICON). The numerical values in Table 12 show the relative value when without addition of the compound as 100% (n is the number of samples).

Row | SMILES | activity at 1 µM [1] [%] | NF-κB activity (multiple) (NF-kB; 0.001 μM compound) | NF-κB activity (multiple) (NF-kB; 0.003 μM compound) | NF-κB activity (multiple) (NF-kB; 0.01 μM compound) | NF-κB activity (multiple) (NF-kB; 0.03 μM compound) | NF-κB activity (multiple) (NF-kB; 0.1 μM compound) | NF-κB activity (multiple) (NF-kB; 0.3 μM compound) | NF-κB activity (multiple) (NF-kB; 1 μM compound) | NF-κB activity (multiple) (NF-kB; 3 μM compound) | NF-κB activity (multiple) (NF-kB; 10 μM compound) | lactic acid production promoting action (%) [3] [%] | other results
1 | O=C(/C=C/c1cnccc1-c1ccc(F)cc1)Nc1ccc(Cn2ccnc2)cc1 [Example 9, (2E)-3-[4-(4-fluorophenyl)pyridin-3-yl]-N-[4-(1H-imidazol-1-ylmethyl)phenyl]prop-2-enamide] | 208 | 11.8 | 13.0 | 12.1 | 13.1 | 13.0 | 10.2 | 8.4 | 7.6 | 6.9 |  | 
2 | COP(=O)(Cc1ccc(NC(=O)/C=C/c2cnccc2-c2ccccc2)cc1)OC [Example 12, dimethyl (4-{[(2E)-3-(4-phenylpyridin-3-yl)prop-2-enoyl]amino}benzyl)phosphonate] | 189 |  |  |  |  |  |  |  |  |  |  | 
3 | CCOP(=O)(Cc1ccc(NC(=O)/C=C/c2cnccc2-c2ccc(F)cc2)cc1)OCC [Example 13, diethyl [4-({(2E)-3-[4-(4-fluorophenyl)pyridin-3-yl]prop-2-enoyl}amino)benzyl]phosphonate] | 184 |  |  |  |  |  |  |  |  |  |  | 
4 | O=C(/C=C/c1cncnc1-c1ccc(F)cc1)Nc1ccc(CCc2nnco2)cc1 [Example 4, (2E)-3-[4-(4-fluorophenyl)pyrimidin-5-yl]-N-{4-[2-(1,3,4-oxadiazol-2-yl)ethyl]phenyl}prop-2-enamide] | 249 |  |  |  |  |  |  |  |  |  | 222.9 | GHb change (%) ([2]; 0.03% mixed with feed): −0.7%
5 | CCOP(=O)(Cc1ccc(NC(=O)/C=C/c2cnccc2-c2ccccc2)cc1)OCC [Example 11, diethyl (4-{[(2E)-3-(4-phenylpyridin-3-yl)prop-2-enoyl]amino}benzyl)phosphonate] | 189 | 9.7 | 10.8 | 10.5 | 10.6 | 10.6 | 9.0 | 7.3 | 7.0 | 5.2 |  | 
6 | O=C(/C=C/c1cnccc1-c1ccc(F)cc1)Nc1ccc(CN2CCOCC2)cc1 [Example 6, (2E)-3-[4-(4-fluorophenyl)pyridin-3-yl]-N-[4-(morpholin-4-ylmethyl)phenyl]prop-2-enamide] | 299 |  |  |  |  |  |  |  |  |  | 216.7 | GHb change (%) ([2]; 0.02% mixed with feed): −1.2%
7 | CS(=O)(=O)Cc1ccc(NC(=O)/C=C/c2cnccc2-c2ccc(F)cc2)cc1 [Example 7, (2E)-3-[4-(4-fluorophenyl)pyridin-3-yl]-N-{4-[(methylsulfonyl)methyl]phenyl}prop-2-enamide] | 197 |  |  |  |  |  |  |  |  |  |  | 
8 | COP(=O)(Cc1ccc(NC(=O)/C=C/c2cnccc2-c2ccc(F)cc2)cc1)OC [Example 14, dimethyl [4-({(2E)-3-[4-(4-fluorophenyl)pyridin-3-yl]prop-2-enoyl}amino)benzyl]phosphonate] | 205 |  |  |  |  |  |  |  |  |  |  | 
9 | Cc1nnc(CCc2ccc(NC(=O)/C=C/c3cnccc3-c3ccc(F)cc3)cc2)o1 [Example 3, (2E)-3-[4-(4-fluorophenyl)pyridin-3-yl]-N-{4-[2-(5-methyl-1,3,4-oxadiazol-2-yl)ethyl]phenyl}prop-2-enamide] | 249 |  |  |  |  |  |  |  |  |  | 175.4 | GHb change (%) ([2]; 0.03% mixed with feed): −0.3%
10 | O=C(/C=C/c1cnccc1-c1ccc(F)cc1)Nc1ccc(Cn2cnc3ccccc32)cc1 [Example 8, (2E)-N-[4-(1H-benzimidazol-1-ylmethyl)phenyl]-3-[4-(4-fluorophenyl)pyridin-3-yl]prop-2-enamide] | 197 | 9.4 | 9.7 | 10.8 | 10.6 | 9.4 | 7.6 | 7.1 | 6.6 | 6.1 |  | 
11 | O=C(/C=C/c1cnccc1-c1ccc(F)cc1)Nc1ccc(OCc2nnco2)cc1 [Example 10, (2E)-3-[4-(4-fluorophenyl)pyridin-3-yl]-N-[4-(1,3,4-oxadiazol-2-ylmethoxy)phenyl]prop-2-enamide] | 164 | 10.0 | 10.2 | 10.5 | 10.5 | 9.6 | 7.8 | 7.5 | 6.9 | 6.2 |  | 
12 | COc1ccc(-c2ncncc2/C=C/C(=O)Nc2ccc(CCc3nnco3)cc2)cc1 [Example 5, (2E)-3-[4-(4-methoxyphenyl)pyrimidin-5-yl]-N-{4-[2-(1,3,4-oxadiazol-2-yl)ethyl]phenyl}prop-2-enamide] | 290 |  |  |  |  |  |  |  |  |  | 233.3 | GHb change (%) ([2]; 0.03% mixed with feed): −0.3%
13 | COc1ccc(-c2ccncc2/C=C/C(=O)Nc2ccc(CCc3nnco3)cc2)cc1 [Example 2, (2E)-3-[4-(4-methoxyphenyl)pyridin-3-yl]-N-{4-[2-(1,3,4-oxadiazol-2-yl)ethyl]phenyl}prop-2-enamide] | 211 |  |  |  |  |  |  |  |  |  | 168.3 | GHb change (%) ([2]; 0.02% mixed with feed): −1%; lipid accumulation amount in the cell in fat differentiation, result in words (3T3-L1 cells; 1 μM): decrease the lipid accumulation amount in the cell; lipid accumulation (%) (3T3-L1 cells; 1 μM compound, 6 days, without compound = 100%, n=2): 45%
